Molecular target: 11β-HSD1 (Homo sapiens, UniProt P28845)
Assay: biochemical
Conditions: for IC50: IC50 Range, Biological Test Example 1, microsomes from CHO cells overexpressing human 11β-HSD1; for inhibition at 0.1 µM: read-out: Average % inhibition at 100 nM, Biological Test Example 1, 100 nM; for inhibition at 0.1111 µM: read-out: Average % inhibition at 111.1 nM, Biological Test Example 1, 111.1 nM

Chain of 11β-HSD1 (P28845 whole entry): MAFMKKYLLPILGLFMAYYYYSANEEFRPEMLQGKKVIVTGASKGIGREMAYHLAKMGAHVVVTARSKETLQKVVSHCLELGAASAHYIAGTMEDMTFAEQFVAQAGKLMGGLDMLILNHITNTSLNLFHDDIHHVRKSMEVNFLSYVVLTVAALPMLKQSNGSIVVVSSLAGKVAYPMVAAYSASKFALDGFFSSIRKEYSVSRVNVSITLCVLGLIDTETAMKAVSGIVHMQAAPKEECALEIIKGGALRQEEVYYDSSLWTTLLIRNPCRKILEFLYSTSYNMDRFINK

SMILES | IC50 | inhibition at 0.1 µM | inhibition at 0.1111 µM
C[C@@H](c1ccc(OCC(F)(F)F)cc1)N1CC[C@](CCC(N)=O)(c2ccc(F)cc2)OC1=O [EXAMPLE 505, 3-((R)-6-(4-fluorophenyl)-2-oxo-3-((S)-1-(4-(2,2,2-trifluoroethoxy)phenyl)ethyl)-1,3-oxazinan-6-yl)propanamide] | < 100 nM | 96.3% | 
CC(=O)N(C)CCC[C@]1(c2ccccc2)CCN([C@@H](C)c2ccc(Br)cc2)C(=O)O1 [EXAMPLE 506, N-(3-((R)-3-((S)-1-(4-bromophenyl)ethyl)-2-oxo-6-phenyl-1,3-oxazinan-6-yl)propyl)-N-methylacetamide] | < 100 nM | 97.7% | 
C[C@@H](c1ccc(Br)cc1)N1CC[C@](CCNS(C)(=O)=O)(c2ccccc2)OC1=O [EXAMPLE 507, N-(2-((S)-3-((S)-1-(4-bromophenyl)ethyl)-2-oxo-6-phenyl-1,3-oxazinan-6-yl)ethyl)methanesulfonamide] | < 100 nM | 96.1% | 
C[C@@H](c1ccc(Br)cc1)N1CC[C@](CCN2CCCS2(=O)=O)(c2ccccc2)OC1=O [EXAMPLE 513, (S)-3-((S)-1-(4-bromophenyl)ethyl)-6-(2-(1-dioxo-isothiazolidin-2-yl)ethyl)-6-phenyl-1,3-oxazinan-2-one] | < 100 nM | 84.4% | 
C[C@@H](c1ccc(Br)cc1)N1CC[C@](CCCN(C)S(C)(=O)=O)(c2ccccc2)OC1=O [EXAMPLE 514, N-(3-((R)-3-((S)-1-(4-bromophenyl)ethyl)-2-oxo-6-phenyl-1,3-oxazinan-6-yl)propyl)-N-methylmethanesulfonamide] | < 100 nM | 93.1% | 
CC(C#N)C[C@]1(c2ccc(F)cc2)CCN([C@@H](C)c2ccc(Br)cc2)C(=O)O1 (stereo partly drawn) [EXAMPLE 520, 3-((R)-3-((S)-1-(4-bromophenyl)ethyl)-6-(4-fluorophenyl)-2-oxo-1,3-oxazinan-6-yl)-2-methylpropanenitrile] | < 100 nM | 98% | 
C[C@@H](c1ccc(Br)cc1)N1CC[C@](CC(C)(C)C(N)=O)(c2ccc(F)cc2)OC1=O [EXAMPLE 522, 3-((R)-3-((S)-1-(4-bromophenyl)ethyl)-6-(4-fluorophenyl)-2-oxo-1,3-oxazinan-6-yl)-2,2-dimethylpropanamide] | < 100 nM | 97.5% | 
C[C@@H](c1ccc(Br)cc1)N1CC[C@](CCC#N)(c2ccc(F)cc2)OC1=O [EXAMPLE 524, 3-((R)-3-((S)-1-(4-bromophenyl)ethyl)-6-(4-fluorophenyl)-2-oxo-1,3-oxazinan-6-yl)propanenitrile] | < 100 nM | 97.9% | 
C[C@@H](c1ccc(Br)cc1)N1CC[C@](CCC(=O)O)(c2ccc(F)cc2)OC1=O [EXAMPLE 526, 3-((R)-3-((S)-1-(4-bromophenyl)ethyl)-6-(4-fluorophenyl)-2-oxo-1,3-oxazinan-6-yl)propanoic acid] | < 100 nM | 54.6% | 
C[C@@H](c1ccc(Br)cc1)N1CC[C@](CC(=O)CO)(c2ccc(F)cc2)OC1=O [EXAMPLE 527, (S)-3-((S)-1-(4-bromophenyl)ethyl)-6-(4-fluorophenyl)-6-(3-hydroxy-2-oxopropyl)-1,3-oxazinan-2-one] | < 100 nM | 89.7% | 
C[C@@H](c1ccc(Br)cc1)N1CC[C@](CC(C)(C)CO)(c2ccc(F)cc2)OC1=O [EXAMPLE 528, (R)-3-((S)-1-(4-bromophenyl)ethyl)-6-(4-fluorophenyl)-6-(3-hydroxy-2,2-dimethylpropyl)-1,3-oxazinan-2-one] | < 100 nM | 98.6% | 
C[C@@H](c1ccc(Br)cc1)N1CC[C@](CCN(C)S(C)(=O)=O)(c2ccccc2)OC1=O [EXAMPLE 529, N-(2-((S)-3-((S)-1-(4-bromophenyl)ethyl)-2-oxo-6-phenyl-1,3-oxazinan-6-yl)ethyl)-N-methylmethanesulfonamide] | < 100 nM | 93.7% | 
Cc1nnc(C[C@]2(c3ccccc3)CCN([C@@H](C)c3ccc(Br)cc3)C(=O)O2)o1 [EXAMPLE 530, (S)-3-((S)-1-(4-bromophenyl)ethyl)-6-((5-methyl-1,3,4-oxadiazol-2-yl)methyl)-6-phenyl-1,3-oxazinan-2-one] | < 100 nM | 73.3% | 
Cc1nnc(C[C@]2(c3ccccc3)CCN([C@@H](C)c3ccc(Br)cc3)C(=O)O2)s1 [EXAMPLE 531, (S)-3-((S)-1-(4-bromophenyl)ethyl)-6-((5-methyl-1,3,4-thiadiazol-2-yl)methyl)-6-phenyl-1,3-oxazinan-2-one] | < 100 nM | 73.5% | 
C[C@@H](c1ccc(C(F)(F)F)cc1)N1CC[C@](CCCO)(c2ccccc2)OC1=O [EXAMPLE 532, (R)-6-(3-hydroxypropyl)-6-phenyl-3-((S)-1-(4-(trifluoromethyl)phenyl)ethyl)-1,3-oxazinan-2-one] | < 100 nM | 96.3% | 
C[C@@H](c1ccc(Cl)c(F)c1)N1CC[C@](CCO)(c2ccc(F)cc2)OC1=O [EXAMPLE 533, (S)-3-((S)-1-(4-chloro-3-fluorophenyl)ethyl)-6-(4-fluorophenyl)-6-(2-hydroxyethyl)-1,3-oxazinan-2-one] | < 100 nM | 94.5% | 
C[C@@H](c1ccc(Cl)cc1F)N1CC[C@](CCCO)(c2ccc(F)cc2)OC1=O [EXAMPLE 534, (R)-3-((S)-1-(4-chloro-2-fluorophenyl)ethyl)-6-(4-fluorophenyl)-6-(3-hydroxypropyl)-1,3-oxazinan-2-one] | < 100 nM | 98.5% | 
C[C@@H](c1ccc(Cl)c(F)c1)N1CC[C@](CCCNS(C)(=O)=O)(c2ccc(F)cc2)OC1=O [EXAMPLE 535, N-(3-((R)-3-((S)-1-(4-chloro-3-fluorophenyl)ethyl)-6-(4-fluorophenyl)-2-oxo-1,3-oxazinan-6-yl)propyl)methanesulfonamide] | < 100 nM | 96.8% | 
CC[C@@H](c1ccc(OC(F)F)cc1)N1CC[C@](CCC(N)=O)(c2ccccc2)OC1=O [EXAMPLE 537, 3-((R)-3-((S)-1-(4-(difluoromethoxy)phenyl)propyl)-2-oxo-6-phenyl-1,3-oxazinan-6-yl)propanamide] | < 100 nM | 94.7% | 
Cc1cc(-c2ccc([C@H](C)N3CC[C@](CC(C)(C)O)(c4ccc(F)cc4)OC3=O)cc2)cc(C)[n+]1[O-] [EXAMPLE 557, 4-(4-((S)-1-((S)-6-(4-fluorophenyl)-6-(2-hydroxy-2-methylpropyl)-2-oxo-1,3-oxazinan-3-yl)ethyl)phenyl)-2,6-dimethylpyridine 1-oxide] |  |  | 89.7%
C[C@@H](c1ccc(-c2ccc(F)cc2)cc1)N1CC[C@](CC(C)(C)C(N)=O)(c2ccccc2)OC1=O [EXAMPLE 568, 3-((R)-3-((S)-1-(4′-fluorobiphenyl-4-yl)ethyl)-2-oxo-6-phenyl-1,3-oxazinan-6-yl)-2,2-dimethylpropanamide] | < 100 nM | 97.7% | 
C[C@@H](c1ccc(Cl)cc1F)N1CC[C@](CC(C)(C)C(N)=O)(c2ccc(F)cc2)OC1=O [EXAMPLE 578, 3-((R)-3-((S)-1-(4-chloro-2-fluorophenyl)ethyl)-6-(4-fluorophenyl)-2-oxo-1,3-oxazinan-6-yl)-2,2-dimethylpropanamide] | < 100 nM | 97.7% | 
C[C@@H](c1ccc(Br)cc1F)N1CC[C@](CCCO)(c2ccc(F)cc2)OC1=O [EXAMPLE 581, (R)-3-((S)-1-(4-bromo-2-fluorophenyl)ethyl)-6-(4-fluorophenyl)-6-(3-hydroxypropyl)-1,3-oxazinan-2-one] | < 100 nM | 96.4% | 
NC(=O)c1ccc(N2CCC[C@H](N3CC[C@](CCCO)(c4ccc(F)cc4)OC3=O)C2)nc1 [EXAMPLE 584, 6-((S)-3-((R)-6-(4-fluorophenyl)-6-(3-hydroxypropyl)-2-oxo-1,3-oxazinan-3-yl)piperidin-1-yl)nicotinamide] |  |  | 77%
CC(=O)N(C)CC[C@]1(c2ccccc2)CCN([C@@H](C)c2ccc(Br)cc2)C(=O)O1 [EXAMPLE 586, N-(2-((R)-3-((S)-1-(4-bromophenyl)ethyl)-2-oxo-6-phenyl-1,3-oxazinan-6-yl)ethyl)-N-methylacetamide] | < 100 nM | 98% | 
Cc1nnc(CC[C@]2(c3ccccc3)CCN([C@@H](C)c3ccc(Br)cc3)C(=O)O2)o1 [EXAMPLE 595, (R)-3-((S)-1-(4-bromophenyl)ethyl)-6-(2-(5-methyl-1,3,4-oxadiazol-2-yl)ethyl)-6-phenyl-1,3-oxazinan-2-one] | < 100 nM | 90.6% | 
Cc1nnc(CC[C@]2(c3ccccc3)CCN([C@@H](C)c3ccc(Br)cc3)C(=O)O2)s1 [EXAMPLE 601, (R)-3-((S)-1-(4-bromophenyl)ethyl)-6-(2-(5-methyl-1,3,4-thiadiazol-2-yl)ethyl)-6-phenyl-1,3-oxazinan-2-one] | < 100 nM | 89.4% | 
C[C@@H](c1ccc(Cl)cc1F)N1CC[C@](CCCNS(C)(=O)=O)(c2ccc(F)cc2)OC1=O [EXAMPLE 602, N-(3-((R)-3-((S)-1-(4-chloro-2-fluorophenyl)ethyl)-6-(4-fluorophenyl)-2-oxo-1,3-oxazinan-6-yl)propyl)methanesulfonamide] | < 100 nM | 98.6% | 
CC(=O)NCC(C)(C)C[C@]1(c2ccc(F)cc2)CCN([C@@H](C)c2ccc(Br)cc2)C(=O)O1 [EXAMPLE 605, N-(3-((R)-3-((S)-1-(4-bromophenyl)ethyl)-6-(4-fluorophenyl)-2-oxo-1,3-oxazinan-6-yl)-2,2-dimethylpropyl)acetamide] | < 100 nM | 85.8% | 
COC(=O)NC(C)(C)C[C@]1(c2ccc(F)cc2)CCN([C@@H](C)c2ccc(Br)cc2)C(=O)O1 [EXAMPLE 606, methyl 1-((S)-3-((S)-1-(4-bromophenyl)ethyl)-6-(4-fluorophenyl)-2-oxo-1,3-oxazinan-6-yl)-2-methylpropan-2-ylcarbamate] | < 100 nM | 96.2% | 

— patent US8575156B2, “Cyclic inhibitors of 11β-hydroxysteroid dehydrogenase 1” (Vitae Pharmaceuticals, Inc., priority 2007, dated 2013)
